# What was measured:
# SpCHS1 = biological target: T1, SpCHS1 (Salvia plebeia, UniProt A0AA50A905); experiment: HPLC-DAD / UPLC-Q-TOF-MS of E. coli culture extract; type: cell-based; conditions: substrate formed in situ by co-expressed RtTAL and Pt4CL from fed tyrosine; product naringenin chalcone
# T1 construct: gene CHS1; ORF in pET28a, co-expressed in E. coli with RtTAL and Pt4CL (substrate supply)
# T1 sequence (A0AA50A905 1-390): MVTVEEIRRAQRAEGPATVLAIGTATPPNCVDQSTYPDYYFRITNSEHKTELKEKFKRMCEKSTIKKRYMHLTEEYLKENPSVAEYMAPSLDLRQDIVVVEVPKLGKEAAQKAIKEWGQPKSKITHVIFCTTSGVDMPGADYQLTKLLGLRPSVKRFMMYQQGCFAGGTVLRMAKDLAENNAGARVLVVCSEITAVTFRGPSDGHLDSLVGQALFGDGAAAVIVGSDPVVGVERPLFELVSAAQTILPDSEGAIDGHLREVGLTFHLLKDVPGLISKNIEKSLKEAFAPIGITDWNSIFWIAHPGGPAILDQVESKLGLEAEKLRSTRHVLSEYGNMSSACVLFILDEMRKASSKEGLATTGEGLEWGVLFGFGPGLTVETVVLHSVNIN
# SpF6H1 = biological target: T2, SpF6H1 (Salvia plebeia, UniProt A0AA49X7K6); experiment: HPLC-DAD / UPLC-Q-TOF-MS product detection; type: biochemical; conditions: 1 mM NADPH, 0.5 mM GSH, 100 mM Tris-HCl, 28 °C, 12 h; AtCPR co-expressed; product scutellarein
# T2 construct: gene F6H1; ORF in pET32a (Trx/His tag), E. coli; co-expressed with AtCPR; with NADPH--cytochrome P450 reductase (Arabidopsis thaliana)
# T2 sequence (A0AA49X7K6 1-521): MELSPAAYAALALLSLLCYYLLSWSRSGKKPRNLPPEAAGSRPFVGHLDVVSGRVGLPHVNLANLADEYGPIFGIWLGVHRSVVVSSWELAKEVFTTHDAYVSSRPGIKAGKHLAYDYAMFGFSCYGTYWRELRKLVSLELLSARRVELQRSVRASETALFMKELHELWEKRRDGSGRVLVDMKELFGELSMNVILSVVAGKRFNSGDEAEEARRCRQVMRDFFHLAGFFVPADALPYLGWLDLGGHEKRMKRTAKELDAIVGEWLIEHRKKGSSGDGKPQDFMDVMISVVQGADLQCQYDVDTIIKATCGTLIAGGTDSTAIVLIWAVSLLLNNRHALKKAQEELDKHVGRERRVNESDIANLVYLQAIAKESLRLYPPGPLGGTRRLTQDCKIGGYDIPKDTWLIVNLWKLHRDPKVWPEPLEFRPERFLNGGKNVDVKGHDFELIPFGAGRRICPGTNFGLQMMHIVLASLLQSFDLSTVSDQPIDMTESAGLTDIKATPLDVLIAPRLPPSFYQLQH
# SpC4H = biological target: T3, SpC4H (Salvia plebeia, UniProt A0AA50AF12); experiment: HPLC-DAD / UPLC-Q-TOF-MS product detection; type: biochemical; conditions: 1 mM NADPH, 0.5 mM GSH, AtCPR added, 100 mM Tris-HCl, 28 °C, 12 h; product 4-coumaric acid
# T3 construct: gene C4H; ORF in pET32a (Trx/His tag), E. coli BL21(DE3), Ni-NTA purified; AtCPR added; with NADPH--cytochrome P450 reductase (Arabidopsis thaliana)
# SpUGT1 = biological target: T4, SpUGT1 (Salvia plebeia, UniProt A0AA49X7M2); experiment: HPLC-DAD / UPLC-Q-TOF-MS product detection; type: biochemical; conditions: 1 mM UDP-glucose, 50 mM PBS, 30 °C, 4 h; product homoplantaginin
# T4 construct: gene UGT1; ORF in pSJ8-MBP (MBP fusion), E. coli BL21(DE3), Ni-NTA purified
# T4 sequence (A0AA49X7M2 1-450): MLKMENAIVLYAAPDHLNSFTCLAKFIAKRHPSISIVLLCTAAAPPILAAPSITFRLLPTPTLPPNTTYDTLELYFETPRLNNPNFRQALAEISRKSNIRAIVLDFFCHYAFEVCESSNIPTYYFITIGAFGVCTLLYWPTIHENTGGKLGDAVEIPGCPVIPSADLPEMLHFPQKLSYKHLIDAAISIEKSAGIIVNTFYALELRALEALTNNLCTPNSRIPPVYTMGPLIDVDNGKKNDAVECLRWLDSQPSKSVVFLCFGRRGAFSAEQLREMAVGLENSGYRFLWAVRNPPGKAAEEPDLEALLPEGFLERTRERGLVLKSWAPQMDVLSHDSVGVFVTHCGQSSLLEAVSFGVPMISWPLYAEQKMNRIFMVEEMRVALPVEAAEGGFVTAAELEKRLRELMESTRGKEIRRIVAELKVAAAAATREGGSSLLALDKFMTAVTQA
# SpUGT2 = biological target: T5, SpUGT2 (Salvia plebeia, UniProt A0AA49XCW5); experiment: HPLC-DAD / UPLC-Q-TOF-MS product detection; type: biochemical; conditions: 1 mM UDP-glucose, 50 mM PBS, 30 °C, 4 h; product homoplantaginin
# T5 construct: gene UGT2; ORF in pSJ8-MBP (MBP fusion), E. coli BL21(DE3), Ni-NTA purified
# T5 sequence (A0AA49XCW5 1-478): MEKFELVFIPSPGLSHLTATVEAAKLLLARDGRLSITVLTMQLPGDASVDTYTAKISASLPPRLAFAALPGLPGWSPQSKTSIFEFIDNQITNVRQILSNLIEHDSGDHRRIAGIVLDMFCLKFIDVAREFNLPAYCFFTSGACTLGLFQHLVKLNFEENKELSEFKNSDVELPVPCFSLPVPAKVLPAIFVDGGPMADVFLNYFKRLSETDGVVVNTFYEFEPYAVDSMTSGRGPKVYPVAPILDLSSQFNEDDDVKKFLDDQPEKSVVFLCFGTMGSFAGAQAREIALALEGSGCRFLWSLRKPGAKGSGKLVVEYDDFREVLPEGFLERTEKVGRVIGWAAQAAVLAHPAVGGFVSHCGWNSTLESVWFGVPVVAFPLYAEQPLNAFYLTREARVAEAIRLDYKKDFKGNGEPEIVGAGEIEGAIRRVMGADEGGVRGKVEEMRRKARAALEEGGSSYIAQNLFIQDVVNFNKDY
# SpUGT3 = biological target: T6, SpUGT3 (Salvia plebeia, UniProt A0AA49X848); experiment: HPLC-DAD / UPLC-Q-TOF-MS product detection; type: biochemical; conditions: 1 mM UDP-glucose, 50 mM PBS, 30 °C, 4 h; product homoplantaginin
# T6 construct: gene UGT3; ORF in pSJ8-MBP (MBP fusion), E. coli BL21(DE3), Ni-NTA purified
# T6 sequence (A0AA49X848 1-469): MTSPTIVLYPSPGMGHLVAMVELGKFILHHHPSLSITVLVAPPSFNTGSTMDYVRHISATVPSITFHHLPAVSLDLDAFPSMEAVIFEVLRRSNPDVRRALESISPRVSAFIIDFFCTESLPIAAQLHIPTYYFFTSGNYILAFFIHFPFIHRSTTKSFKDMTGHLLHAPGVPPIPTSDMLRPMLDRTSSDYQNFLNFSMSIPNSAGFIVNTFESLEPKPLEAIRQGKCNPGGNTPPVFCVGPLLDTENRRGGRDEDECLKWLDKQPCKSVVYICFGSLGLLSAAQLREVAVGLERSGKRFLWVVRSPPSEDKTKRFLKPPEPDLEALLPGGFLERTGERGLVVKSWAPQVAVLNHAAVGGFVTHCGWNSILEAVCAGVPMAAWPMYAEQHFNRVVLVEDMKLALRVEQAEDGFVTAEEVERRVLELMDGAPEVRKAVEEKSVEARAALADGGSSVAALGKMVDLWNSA
# SpCHI = biological target: T7, SpCHI (Salvia plebeia, UniProt A0AA49X7E2); experiment: HPLC-DAD / UPLC-Q-TOF-MS product detection; type: biochemical; conditions: 100 mM PBS, 25 °C, 2 s; product naringenin
# T7 construct: gene CHI; full ORF in pET28a (His tag), E. coli BL21(DE3), Ni-NTA purified
# T7 sequence (A0AA49X7E2 1-225): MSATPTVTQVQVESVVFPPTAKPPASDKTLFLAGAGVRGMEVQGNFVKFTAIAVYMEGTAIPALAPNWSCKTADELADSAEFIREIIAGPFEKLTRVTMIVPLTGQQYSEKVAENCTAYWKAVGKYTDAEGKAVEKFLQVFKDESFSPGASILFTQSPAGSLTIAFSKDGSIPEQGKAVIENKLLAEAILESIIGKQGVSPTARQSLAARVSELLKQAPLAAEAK
# SpFNS = biological target: T8, SpFNS (Salvia plebeia, UniProt A0AA49X7D7); experiment: HPLC-DAD / UPLC-Q-TOF-MS product detection; type: biochemical; conditions: 1 mM NADPH, 0.5 mM GSH, 100 mM Tris-HCl, 28 °C, 12 h; AtCPR co-expressed; product apigenin
# T8 construct: gene FNS
# SpPAL = biological target: T9, SpPAL (Salvia plebeia, UniProt A0AA50AET4); experiment: HPLC-DAD / UPLC-Q-TOF-MS product detection; type: biochemical; conditions: 100 mM Tris-HCl, 37 °C, 8 h; product cinnamic acid
# T9 construct: gene PAL; full ORF in pET28a (His tag), E. coli BL21(DE3), Ni-NTA purified
# SpF6OMT2 = biological target: T10, SpF6OMT2 (Salvia plebeia, UniProt A0AA49X7F5); experiment: HPLC-DAD / UPLC-Q-TOF-MS product detection; type: biochemical; conditions: 1 mM SAM, 1 mM MgCl2, 1 mM DTT, 100 mM Tris-HCl, 28 °C, 12 h; product hispidulin
# T10 construct: gene F6OMT2; full ORF in pET28a (His tag), E. coli BL21(DE3), Ni-NTA purified
# SpF6OMT1 = biological target: T11, SpF6OMT1 (Salvia plebeia, UniProt A0AA49X7D9); experiment: HPLC-DAD / UPLC-Q-TOF-MS product detection; type: biochemical; conditions: 1 mM SAM, 1 mM MgCl2, 1 mM DTT, 100 mM Tris-HCl, 28 °C, 12 h; product hispidulin
# T11 construct: gene F6OMT1; full ORF in pET28a (His tag), E. coli BL21(DE3), Ni-NTA purified
# T11 sequence (A0AA49X7D9 1-222): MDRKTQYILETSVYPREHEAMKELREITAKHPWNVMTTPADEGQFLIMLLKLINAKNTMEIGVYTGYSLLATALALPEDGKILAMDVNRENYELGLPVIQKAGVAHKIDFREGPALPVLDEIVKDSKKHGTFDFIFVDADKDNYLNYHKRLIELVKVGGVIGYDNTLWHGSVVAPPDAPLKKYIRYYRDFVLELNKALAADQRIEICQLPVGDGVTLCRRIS
# T10 sequence (A0AA49X7F5 1-247): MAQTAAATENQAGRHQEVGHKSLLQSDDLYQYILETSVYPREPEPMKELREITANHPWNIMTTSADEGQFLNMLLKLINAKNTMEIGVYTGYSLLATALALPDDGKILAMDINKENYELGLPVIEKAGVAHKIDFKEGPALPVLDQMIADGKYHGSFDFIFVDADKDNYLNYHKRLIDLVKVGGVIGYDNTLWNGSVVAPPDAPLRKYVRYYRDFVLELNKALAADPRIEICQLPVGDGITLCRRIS
# T3 sequence (A0AA50AF12 entry or part of it): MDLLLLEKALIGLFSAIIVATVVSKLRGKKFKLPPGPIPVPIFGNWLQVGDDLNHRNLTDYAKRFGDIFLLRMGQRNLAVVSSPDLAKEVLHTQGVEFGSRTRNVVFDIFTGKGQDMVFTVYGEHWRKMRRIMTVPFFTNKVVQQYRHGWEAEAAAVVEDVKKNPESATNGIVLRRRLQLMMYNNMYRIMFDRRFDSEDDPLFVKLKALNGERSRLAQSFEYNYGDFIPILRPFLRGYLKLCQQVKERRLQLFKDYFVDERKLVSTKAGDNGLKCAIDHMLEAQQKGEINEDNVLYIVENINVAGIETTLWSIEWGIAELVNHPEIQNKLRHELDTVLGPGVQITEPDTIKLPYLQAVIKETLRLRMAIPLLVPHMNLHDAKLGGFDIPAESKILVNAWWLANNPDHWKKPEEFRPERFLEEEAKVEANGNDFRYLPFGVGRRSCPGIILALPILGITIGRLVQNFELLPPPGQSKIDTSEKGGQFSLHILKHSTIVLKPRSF
# T9 sequence (A0AA50AET4 1-710): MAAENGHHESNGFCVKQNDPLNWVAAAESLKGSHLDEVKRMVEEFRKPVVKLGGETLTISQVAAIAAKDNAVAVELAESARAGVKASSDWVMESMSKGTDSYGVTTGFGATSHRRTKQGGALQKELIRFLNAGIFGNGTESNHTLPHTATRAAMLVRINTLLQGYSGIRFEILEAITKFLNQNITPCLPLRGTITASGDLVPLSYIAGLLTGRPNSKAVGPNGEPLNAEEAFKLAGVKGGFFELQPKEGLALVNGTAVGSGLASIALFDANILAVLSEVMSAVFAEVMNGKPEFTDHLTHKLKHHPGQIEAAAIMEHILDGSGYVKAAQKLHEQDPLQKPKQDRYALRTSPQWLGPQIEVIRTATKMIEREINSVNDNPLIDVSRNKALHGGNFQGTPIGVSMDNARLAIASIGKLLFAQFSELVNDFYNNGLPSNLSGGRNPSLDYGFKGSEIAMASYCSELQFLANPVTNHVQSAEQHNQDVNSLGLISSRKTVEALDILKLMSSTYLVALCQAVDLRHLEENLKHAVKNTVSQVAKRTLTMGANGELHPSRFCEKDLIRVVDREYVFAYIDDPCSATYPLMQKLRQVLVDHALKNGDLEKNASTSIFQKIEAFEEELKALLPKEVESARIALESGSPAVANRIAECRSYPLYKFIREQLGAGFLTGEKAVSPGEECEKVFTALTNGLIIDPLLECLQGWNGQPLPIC
# T8 sequence (A0AA49X7D7 1-507): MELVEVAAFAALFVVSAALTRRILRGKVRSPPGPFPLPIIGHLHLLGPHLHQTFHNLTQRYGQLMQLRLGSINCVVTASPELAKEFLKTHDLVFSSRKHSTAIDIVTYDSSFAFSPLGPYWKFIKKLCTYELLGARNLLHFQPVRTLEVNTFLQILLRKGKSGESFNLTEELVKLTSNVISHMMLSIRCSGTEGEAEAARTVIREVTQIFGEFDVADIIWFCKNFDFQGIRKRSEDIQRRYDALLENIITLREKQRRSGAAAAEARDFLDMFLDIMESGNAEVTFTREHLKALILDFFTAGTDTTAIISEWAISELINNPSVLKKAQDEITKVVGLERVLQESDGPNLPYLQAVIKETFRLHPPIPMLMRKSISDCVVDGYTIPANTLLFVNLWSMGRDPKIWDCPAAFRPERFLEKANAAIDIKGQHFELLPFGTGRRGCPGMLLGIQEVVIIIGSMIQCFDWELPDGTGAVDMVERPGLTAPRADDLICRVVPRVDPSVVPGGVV
smiles,measurement,setting,value
CC(C)(COP(=O)(O)OP(=O)(O)OC[C@H]1O[C@@H](n2cnc3c(N)ncnc32)[C@H](O)[C@@H]1OP(=O)(O)O)[C@@H](O)C(=O)NCCC(=O)NCCSC(=O)/C=C/c1ccc(O)cc1 [4-coumaryl-CoA],HPLC-DAD / UPLC-Q-TOF-MS of E. coli culture extract,SpCHS1,providing a sufficient substrate for the catalytic reaction of SpCHS
"O=c1cc(-c2ccc(O)cc2)oc2cc(O)cc(O)c12 [AG, apigenin]",HPLC-DAD / UPLC-Q-TOF-MS product detection,SpF6H1,"SpF6H1 produced scutellarein from apigenin, a precursor of hispidulin"
"O=C(O)/C=C/c1ccccc1 [CiA, cinnamic acid]",HPLC-DAD / UPLC-Q-TOF-MS product detection,SpC4H,SpC4H was able to catalyze the production of 4-coumaric acid from cinnamic acid
"COc1c(O)cc2oc(-c3ccc(O)cc3)cc(=O)c2c1O [HD, hispidulin]",HPLC-DAD / UPLC-Q-TOF-MS product detection,SpUGT1,"SpUGT1, SpUGT2, and SpUGT3 produced homoplantaginin from hispidulin in vitro"
same,HPLC-DAD / UPLC-Q-TOF-MS product detection,SpUGT2,"SpUGT1, SpUGT2, and SpUGT3 produced homoplantaginin from hispidulin in vitro"
same,HPLC-DAD / UPLC-Q-TOF-MS product detection,SpUGT3,"SpUGT1, SpUGT2, and SpUGT3 produced homoplantaginin from hispidulin in vitro"
"O=C(/C=C/c1ccc(O)cc1)c1c(O)cc(O)cc1O [NC, naringenin chalcone]",HPLC-DAD / UPLC-Q-TOF-MS product detection,SpCHI,naringenin chalcone was completely consumed in the sample group to generate naringenin
"O=C1C[C@@H](c2ccc(O)cc2)Oc2cc(O)cc(O)c21 [NG, naringenin]",HPLC-DAD / UPLC-Q-TOF-MS product detection,SpFNS,SpFNS produced apigenin from naringenin
"N[C@@H](Cc1ccccc1)C(=O)O [Phe, phenylalanine]",HPLC-DAD / UPLC-Q-TOF-MS product detection,SpPAL,SpPAL can catalyze the formation of cinnamic acid from phenylalanine
"O=c1cc(-c2ccc(O)cc2)oc2cc(O)c(O)c(O)c12 [SA, scutellarein]",HPLC-DAD / UPLC-Q-TOF-MS product detection,SpF6OMT2,SpF6OMT1 and SpF6OMT2 converted scutellarein into hispidulin
same,HPLC-DAD / UPLC-Q-TOF-MS product detection,SpF6OMT1,SpF6OMT1 and SpF6OMT2 converted scutellarein into hispidulin

# From article PMC10461478, “The chemical profiling of Salvia plebeia during different growth periods and the biosynthesis of its main flavonoids ingredients” (Frontiers in Plant Science, 2023)
